The numbers were not newly measured in PMC7394005, “Assessing the Selectivity of FXR, LXRs, CAR, and RORγ Pharmaceutical Ligands With Reporter Cell Lines” (Frontiers in Pharmacology, 2020), which cites them from elsewhere.

Series [1] relates to type 1 diabetes model mice. Set-up: method as in Solt et al., 2015. Conditions: ref Solt et al., 2015; cited from earlier work.
Another series relates to FXR. Also on record: method as in Yu et al., 2014. Conditions: ref Yu et al., 2014; read-out: IC50 in FXR cell-based antagonistic assays; cited from earlier work.
The test system of another series is hPXR LBD. Set-up: method as in Shukla et al., 2011. Particulars: ref Shukla et al., 2011; cited from earlier work.
Another series relates to RORγt. Also on record: method as in Rene et al., 2014; Chang et al., 2016. Particulars: full-length RORγt transfected cells; ref Rene et al., 2014; Chang et al., 2016; read-out: EC50, induction of reporter gene expression; cited from earlier work. A general note: Reporter assays use an easily measured gene product as a stand-in for the process of interest.
In another series the test system is LXRβ. Particulars: luciferase reporter gene with LXR response elements in HEK293 cells; ref Peng et al., 2011; cited from earlier work.
A further series deals with CAR/SRC-1. Also on record: method as in Maglich et al., 2003. Conditions: ref Maglich et al., 2003; read-out: EC50 in the CAR/SRC-1 FRET assay; cited from earlier work.
In another series the test system is hPXR. Set-up: method as in Lin et al., 2017. Conditions: ref Lin et al., 2017; read-out: IC50 in the cell-based hPXR antagonistic assay; cited from earlier work.

Turning to `CC(=O)Nc1nc(C)c(S(=O)(=O)Nc2ccc(C(O)(C(F)(F)F)C(F)(F)F)cc2)s1` [SR1001], the “Diabetes incidence and insulitis” value in series [1] is “significantly reduced diabetes incidence and insulitis”.

For orientation: IC50 means the concentration that gives 50% inhibition. For `COc1cccc(Cn2cc(C(=O)Nc3ccc(C)c(S(=O)(=O)N4CCOCC4)c3)c(-c3ccc(C)cc3)n2)c1` [DY268], the IC50 with FXR is 468 nM.

Turning to `CCOP(=O)(OCC)C(=Cc1cc(C(C)(C)C)c(O)c(C(C)(C)C)c1)P(=O)(OCC)OCC` [SR12813], the EC50 in the series on hPXR LBD is 440 nM.

For the compound `O=C(Nc1ccc(C(O)(C(F)(F)F)C(F)(F)F)cc1)c1ccc(C(F)(F)F)cc1` [SR1078], the EC50 in the series on RORγt was 800 nM.

Turning to `O=C(O)Cc1cccc(OCCCN(Cc2cccc(C(F)(F)F)c2Cl)CC(c2ccccc2)c2ccccc2)c1` [GW3965], the LXRβ agonistic potency result in the series on LXRβ is given as “nanomolar”.

For the compound `Clc1ccc(-c2nc3sccn3c2/C=N/OCc2ccc(Cl)c(Cl)c2)cc1` [CITCO], in the series with CAR/SRC-1, the EC50 is 49 nM.

In the case of SPA70, the IC50 in the series with hPXR was 510 nM.
